Test results published in patent publication US20070117743A1, “New antitumoral compounds” (priority 2003, published 2007).
Where a SMILES comes first, the peptide text is derived from it. Bridges are numbered along the chain shown (N, C = ends). [ ]: non-standard residue; d: D form. The star is where a group is joined. d(aIle) = CC[C@H](C)[C@@H](N)C(=O)O; d(aThr) = C[C@@H](O)[C@@H](N)C(=O)O; Hexanoyl(5-Me) = CC(C)CCCC(=O)*; Orn = NCCC[C@H](N)C(=O)O; Dhb = C/C=C(\N)C(=O)O

Tests used:
Format in all cases: cell-based, human
[1] = test system: A-549; experiment: SRB colorimetric assay of cell growth and viability, A-549; conditions: 48 hours exposure; for GI50: read-out: GI50 A-549; for CC50: read-out: LC50 A-549
[2] = test system: SK-BR-3; experiment: SRB colorimetric assay of cell growth and viability, SK-BR-3; conditions: 48 hours exposure
[3] = test system: LoVo; experiment: SRB colorimetric assay of cell growth and viability, LoVo; conditions: 48 hours exposure; for CC50: read-out: LC50 LOVO
[4] = test system: PANC-1; experiment: SRB colorimetric assay of cell growth and viability, PANC-1; conditions: 48 hours exposure; for CC50: read-out: LC50 PANC-1
[5] = test system: SK-MEL-28; experiment: SRB colorimetric assay of cell growth and viability, SK-MEL-28; conditions: 48 hours exposure; for CC50: read-out: LC50 MEL-28
[6] = test system: LNCaP; experiment: SRB colorimetric assay of cell growth and viability, LNCaP; conditions: 48 hours exposure; for GI50: read-out: GI50 LN-caP; for CC50: read-out: LC50 LN-caP
[7] = test system: DU-145; experiment: SRB colorimetric assay of cell growth and viability, DU-145; conditions: 48 hours exposure
[8] = test system: HeLa-APL; experiment: SRB colorimetric assay of cell growth and viability, HeLa-APL; conditions: 48 hours exposure; for CC50: read-out: LC50 HELA-APL
[9] = test system: HT-29; experiment: SRB colorimetric assay of cell growth and viability, HT-29; conditions: 48 hours exposure; for GI50: read-out: GI50 HT-29; for CC50: read-out: LC50 HT-29
[10] = test system: IGROV-ET; experiment: SRB colorimetric assay of cell growth and viability, IGROV-ET; conditions: 48 hours exposure; for CC50: read-out: LC50 IGROV-ET
[11] = test system: IGROV-1; experiment: SRB colorimetric assay of cell growth and viability, IGROV-1; conditions: 48 hours exposure
[12] = test system: K-562; experiment: SRB colorimetric assay of cell growth and viability, K-562; conditions: 48 hours exposure; for CC50: read-out: LC50 K-562
[13] = test system: HeLa; experiment: SRB colorimetric assay of cell growth and viability, HeLa; conditions: 48 hours exposure; for CC50: read-out: LC50 HELA

SMILES: C/C=C1\NC(=O)[C@H](Cc2ccccc2)NC(=O)[C@@H](C(C)C)NC(=O)[C@@H]([C@@H](C)CC)NC(=O)[C@H](NC(=O)[C@H](NC(=O)[C@H](CCCN)NC(=O)[C@H]2CCCN2C(=O)[C@H](NC(=O)[C@@H](NC(=O)[C@@H](NC(=O)[C@H](NC(=O)c2ccc(C(F)(F)F)cc2)C(C)C)[C@@H](C)O)C(C)C)C(C)C)[C@@H](C)CC)[C@@H](C)OC(=O)[C@H](C(C)C)NC1=O [Compound 21, [p-CF3Bza^14]-KF]
- TGI A-549 [1]: 4.06E−07 Molar
- GI50 [1]: 0.146 µM
- CC50 [1]: 1.68 µM
- GI50 [2]: 0.111 µM
- LC50 [2]: 0.543 µM
- TGI SK-BR-3 [2]: 2.46E−07 Molar
- GI50 [3]: 0.0917 µM
- TGI LOVO [3]: 1.92E−07 Molar
- CC50 [3]: 0.404 µM
- GI50 [4]: 1.3 µM
- TGI PANC-1 [4]: 3.11E−06 Molar
- CC50 [4]: 6.5 µM
- GI50 [5]: 0.897 µM
- TGI MEL-28 [5]: 1.85E−06 Molar
- CC50 [5]: 3.8 µM
- TGI LN-caP [6]: 1.30E−06 Molar
- GI50 [6]: 0.339 µM
- CC50 [6]: 3.52 µM
- GI50 [7]: 0.241 µM
- LC50 (concentration causing 50% net cell kill) [7]: 3.28 µM
- TGI DU-145 [7]: 1.22E−06 Molar
- GI50 [8]: 0.504 µM
- TGI HELA-APL [8]: 1.48E−06 Molar
- CC50 [8]: 3.67 µM
- TGI HT-29 [9]: 2.59E−07 Molar
- GI50 [9]: 0.114 µM
- CC50 [9]: 0.585 µM
- GI50 [10]: 0.169 µM
- TGI IGROV-ET [10]: 7.61E−07 Molar
- CC50 [10]: 2.83 µM
- GI50 [11]: 0.177 µM
- LC50 (concentration causing 50% net cell killing) [11]: 3.45 µM
- TGI IGROV [11]: 7.22E−07 Molar
- GI50 [12]: 6.5 µM
- TGI K-562 [12]: 6.50E−06 Molar
- CC50 [12]: 6.5 µM
- GI50 [13]: 0.319 µM
- TGI HELA [13]: 1.28E−06 Molar
- CC50 [13]: 3.91 µM

SMILES: C/C=C1\NC(=O)[C@H](Cc2ccccc2)NC(=O)[C@@H](C(C)C)NC(=O)[C@@H]([C@@H](C)CC)NC(=O)[C@H](NC(=O)[C@H](NC(=O)[C@H](CCCN)NC(=O)[C@H]2CCCN2C(=O)[C@H](NC(=O)[C@@H](NC(=O)[C@@H](NC(=O)[C@H](NC(=O)Cc2cc(F)cc(F)c2)C(C)C)[C@@H](C)O)C(C)C)C(C)C)[C@@H](C)CC)[C@@H](C)OC(=O)[C@H](C(C)C)NC1=O [Compound 22, [3,5-dFPhAc^14]-KF]
- TGI A-549 [1]: 2.16E−06 Molar
- GI50 [1]: 1.17 µM
- CC50 [1]: 3.99 µM
- GI50 [2]: 0.464 µM
- LC50 [2]: 3.64 µM
- TGI SK-BR-3 [2]: 1.45E−06 Molar
- GI50 [3]: 0.288 µM
- TGI LOVO [3]: 1.06E−06 Molar
- CC50 [3]: 3.11 µM
- GI50 [4]: 5.45 µM
- TGI PANC-1 [4]: 6.58E−06 Molar
- CC50 [4]: 6.58 µM
- GI50 [5]: 2.5 µM
- TGI MEL-28 [5]: 6.58E−06 Molar
- CC50 [5]: 6.58 µM
- TGI LN-caP [6]: 6.58E−06 Molar
- GI50 [6]: 1.64 µM
- CC50 [6]: 6.58 µM
- GI50 [7]: 1.43 µM
- LC50 (concentration causing 50% net cell kill) [7]: 6.58 µM
- TGI DU-145 [7]: 6.58E−06 Molar
- GI50 [8]: 1.96 µM
- TGI HELA-APL [8]: 6.58E−06 Molar
- CC50 [8]: 6.58 µM
- TGI HT-29 [9]: 1.94E−06 Molar
- GI50 [9]: 0.888 µM
- CC50 [9]: 4.25 µM
- GI50 [10]: 1.07 µM
- TGI IGROV-ET [10]: 2.32E−06 Molar
- CC50 [10]: 5.01 µM
- GI50 [11]: 0.98 µM
- LC50 (concentration causing 50% net cell killing) [11]: 4.57 µM
- TGI IGROV [11]: 2.12E−06 Molar
- GI50 [12]: 6.58 µM
- TGI K-562 [12]: 6.58E−06 Molar
- CC50 [12]: 6.58 µM
- GI50 [13]: 1.29 µM
- TGI HELA [13]: 3.28E−06 Molar
- CC50 [13]: 6.58 µM

SMILES: C/C=C1\NC(=O)[C@H](Cc2ccccc2)NC(=O)[C@@H](C(C)C)NC(=O)[C@@H]([C@@H](C)CC)NC(=O)[C@H](NC(=O)[C@H](NC(=O)[C@H](CCCN)NC(=O)[C@H]2CCCN2C(=O)[C@H](NC(=O)[C@@H](NC(=O)[C@@H](NC(=O)[C@H](NC(=O)CCCNC(=N)N)C(C)C)[C@@H](C)O)C(C)C)C(C)C)[C@@H](C)CC)[C@@H](C)OC(=O)[C@H](C(C)C)NC1=O [Compound 29, [4-GuBut^14]-KF]
- TGI A-549 [1]: 6.70E−06 Molar
- GI50 [1]: 6.7 µM
- CC50 [1]: 6.7 µM
- GI50 [2]: 6.7 µM
- LC50 [2]: 6.7 µM
- TGI SK-BR-3 [2]: 6.70E−06 Molar
- GI50 [3]: 5.45 µM
- TGI LOVO [3]: 6.70E−06 Molar
- CC50 [3]: 6.7 µM
- GI50 [4]: 6.7 µM
- TGI PANC-1 [4]: 6.70E−06 Molar
- CC50 [4]: 6.7 µM
- GI50 [5]: 6.7 µM
- TGI MEL-28 [5]: 6.70E−06 Molar
- CC50 [5]: 6.7 µM
- TGI LN-caP [6]: 6.70E−06 Molar
- GI50 [6]: 3.91 µM
- CC50 [6]: 6.7 µM
- GI50 [7]: 6.7 µM
- LC50 (concentration causing 50% net cell kill) [7]: 6.7 µM
- TGI DU-145 [7]: 6.70E−06 Molar
- GI50 [8]: 6.7 µM
- TGI HELA-APL [8]: 6.70E−06 Molar
- CC50 [8]: 6.7 µM
- TGI HT-29 [9]: 6.70E−06 Molar
- GI50 [9]: 6.7 µM
- CC50 [9]: 6.7 µM
- GI50 [10]: 6.7 µM
- TGI IGROV-ET [10]: 6.70E−06 Molar
- CC50 [10]: 6.7 µM
- GI50 [11]: 6.7 µM
- LC50 (concentration causing 50% net cell killing) [11]: 6.7 µM
- TGI IGROV [11]: 6.70E−06 Molar
- GI50 [12]: 6.7 µM
- TGI K-562 [12]: 6.70E−06 Molar
- CC50 [12]: 6.7 µM
- GI50 [13]: 6.7 µM
- TGI HELA [13]: 6.70E−06 Molar
- CC50 [13]: 6.7 µM

SMILES: C/C=C1\NC(=O)[C@H](Cc2ccccc2)NC(=O)[C@@H](C(C)C)NC(=O)[C@@H]([C@@H](C)CC)NC(=O)[C@H](NC(=O)[C@H](NC(=O)[C@H](CCCN)NC(=O)[C@H]2CCCN2C(=O)[C@H](NC(=O)CNC(=O)[C@@H](NC(=O)[C@H](NC(=O)CCCC(C)C)C(C)C)[C@@H](C)O)C(C)C)[C@@H](C)CC)[C@@H](C)OC(=O)[C@H](C(C)C)NC1=O [Compound 42, [Gly^11]-KF] ({Hexanoyl(5-Me)}-[dV]TG[dV][dP][Orn][d(aIle)][d(aThr)][d(aIle)][dV]F[Dhb]V; ester 8-C)
- TGI A-549 [1]: 6.96E−06 Molar
- GI50 [1]: 6.96 µM
- CC50 [1]: 6.96 µM
- GI50 [2]: 6.96 µM
- LC50 [2]: 6.96 µM
- TGI SK-BR-3 [2]: 6.96E−06 Molar
- GI50 [3]: 3.87 µM
- TGI LOVO [3]: 6.96E−06 Molar
- CC50 [3]: 6.96 µM
- GI50 [4]: 5.08 µM
- TGI PANC-1 [4]: 6.96E−06 Molar
- CC50 [4]: 6.96 µM
- GI50 [5]: 6.96 µM
- TGI MEL-28 [5]: 6.96E−06 Molar
- CC50 [5]: 6.96 µM
- TGI LN-caP [6]: 6.96E−06 Molar
- GI50 [6]: 3.03 µM
- CC50 [6]: 6.96 µM
- GI50 [7]: 6.96 µM
- LC50 (concentration causing 50% net cell kill) [7]: 6.96 µM
- TGI DU-145 [7]: 6.96E−06 Molar
- GI50 [8]: 6.96 µM
- TGI HELA-APL [8]: 6.96E−06 Molar
- CC50 [8]: 6.96 µM
- TGI HT-29 [9]: 6.96E−06 Molar
- GI50 [9]: 6.96 µM
- CC50 [9]: 6.96 µM
- GI50 [10]: 6.96 µM
- TGI IGROV-ET [10]: 6.96E−06 Molar
- CC50 [10]: 6.96 µM
- GI50 [11]: 4.61 µM
- LC50 (concentration causing 50% net cell killing) [11]: 6.96 µM
- TGI IGROV [11]: 6.96E−06 Molar
- GI50 [12]: 1.82 µM
- TGI K-562 [12]: 4.37E−06 Molar
- CC50 [12]: 6.96 µM
- GI50 [13]: 6.96 µM
- TGI HELA [13]: 6.96E−06 Molar
- CC50 [13]: 6.96 µM
